Test results as given in ChEMBL document CHEMBL1137558, “Synthesis and biological evaluation of new 2-arylcarbonyl-3-trifluoromethylquinoxaline 1,4-di-N-oxide derivatives and their reduced analogues” (2007).

Assays:
Type in all cases: functional
[1] = Anticancer activity against human NCI60 cells; details: for CC50: read-out: LC50 (the source's name)
[2] = Anticancer activity against melanoma cells; details: Homo sapiens, Melanoma cell
[3] = Anticancer activity against nonsmall lung cancer cells; details: Homo sapiens, Cancer cell lines
[4] = Anticancer activity against ovarian cancer cells; details: Homo sapiens, Cancer cell lines
[5] = Anticancer activity against prostate cancer cells; details: Homo sapiens, Cancer cell lines
[6] = Anticancer activity against colon cancer cells; details: Homo sapiens, Cancer cell lines
[7] = Anticancer activity against CNS cancer cells; details: Homo sapiens, Cancer cell lines
[8] = Anticancer activity against leukemia cells; details: Homo sapiens, Leukemia cell
[9] = Anticancer activity against breast cancer cells; details: Homo sapiens, Cancer cell lines
[10] = Anticancer activity against renal cancer cells; details: Homo sapiens, Cancer cell lines

Row | Compound | GI50 [1] | TGI [1] | CC50 [1] | GI50 [2] | GI50 [3] | GI50 [4] | GI50 [5] | GI50 [6] | GI50 [7] | GI50 [8] | GI50 [9] | GI50 [10]
1 | O=C(c1ccc2ccccc2c1)c1c(C(F)(F)F)[n+]([O-])c2ccc(Cl)cc2[n+]1[O-] | 1230 nM | 2630 nM | 5500 nM | 1230 nM | 1510 nM | 1200 nM | 1480 nM | 1290 nM | 1470 nM | 650 nM | 1150 nM | 1380 nM
2 | O=C(c1ccc2ccccc2c1)c1c(C(F)(F)F)[n+]([O-])c2cc(C(F)(F)F)ccc2[n+]1[O-] | 1580 nM | 3470 nM | 9330 nM | 1480 nM | 1780 nM | 1690 nM | 1510 nM | 1730 nM | 1720 nM | 1200 nM | 1670 nM | 1550 nM
3 | O=C(c1ccco1)c1c(C(F)(F)F)[n+]([O-])c2cc(F)c(F)cc2[n+]1[O-] | 380 nM | 1480 nM | 7760 nM | 560 nM | 730 nM | 390 nM | 420 nM | 190 nM | 370 nM | 430 nM | 200 nM | 360 nM
4 | O=C(c1ccco1)c1nc2cc(C(F)(F)F)ccc2[n+]([O-])c1C(F)(F)F | 45700 nM | 97700 nM | > 100000 nM | 42900 nM | 48100 nM | 42500 nM | 51900 nM | 41400 nM | 45500 nM | 51100 nM | 32000 nM | 60600 nM
5 | O=C(c1ccc2ccccc2c1)c1c(C(F)(F)F)[n+]([O-])c2ccc(C(F)(F)F)cc2[n+]1[O-] | 720 nM | 1910 nM | 5500 nM | 970 nM | 1420 nM | 470 nM | 570 nM | 660 nM | 950 nM | 260 nM | 990 nM | 580 nM
6 | O=C(c1ccc2ccccc2c1)c1c(C(F)(F)F)[n+]([O-])c2cc(Cl)c(Cl)cc2[n+]1[O-] | 1580 nM | 3160 nM | 6170 nM | 1570 nM | 1700 nM | 1510 nM | 1550 nM | 1550 nM | 1630 nM | 1580 nM | 1620 nM | 1640 nM
7 | O=C(c1ccco1)c1c(C(F)(F)F)[n+]([O-])c2cc(Cl)c(Cl)cc2[n+]1[O-] | 630 nM | 3090 nM | 11000 nM | 1570 nM | 280 nM | 1650 nM | 330 nM | 500 nM | 790 nM | 270 nM | 1380 nM | 310 nM
8 | Cc1ccc2c(c1)[n+]([O-])c(C(=O)c1ccco1)c(C(F)(F)F)[n+]2[O-] | 660 nM | 3470 nM | 17800 nM | 880 nM | 470 nM | 850 nM | 240 nM | 1170 nM | 740 nM | 260 nM | 660 nM | 580 nM
9 | O=C(c1ccco1)c1nc2ccc(C(F)(F)F)cc2[n+]([O-])c1C(F)(F)F | 47900 nM | 95500 nM | > 100000 nM | 46100 nM | 41900 nM | 43000 nM | 35100 nM | 75100 nM | 35500 nM | 48400 nM | 59100 nM | 49700 nM
10 | O=C(c1ccco1)c1nc2cc(C(F)(F)F)ccc2nc1C(F)(F)F | 87100 nM | 97700 nM | > 100000 nM | 100000 nM | 81500 nM | 90800 nM | 100000 nM | 100000 nM | 75900 nM | 54000 nM | 84000 nM | 100000 nM
11 | O=C(c1ccco1)c1c(C(F)(F)F)[n+]([O-])c2ccccc2[n+]1[O-] | 410 nM | 5130 nM | 26900 nM | 670 nM | 350 nM | 1450 nM | 200 nM | 510 nM | 400 nM | 70 nM | 760 nM | 330 nM
12 | COc1ccc2c(c1)[n+]([O-])c(C(=O)c1cccs1)c(C(F)(F)F)[n+]2[O-] | 5010 nM | 29500 nM | 49000 nM | 5890 nM | 3930 nM | 4990 nM | 2480 nM | 7080 nM | 6240 nM | 4430 nM | 4920 nM | 5110 nM
13 | O=C(c1cccs1)c1c(C(F)(F)F)[n+]([O-])c2ccc(Cl)cc2[n+]1[O-] | 70 nM | 500 nM | 2190 nM | 120 nM | 70 nM | 160 nM | – | 40 nM | 90 nM | 70 nM | 80 nM | 30 nM
